Measured values: patent US11090304B2 (Amgen Inc., priority 2018, dated 2021)
Where two headings read alike, the source gives them in different places.

Assays:
[1] = biological target: GDP-bound KRAS protein (aa 1-169), containing both G12C and C118A amino acid substitutions (Homo sapiens, UniProt P01116, C118A/G12C); test: Coupled nucleotide exchange assay (SOS-mediated, AlphaScreen); assay type: biochemical; conditions: 5 min compound pre-incubation
[2] = tested on: Phosphorylation of ERK1/2 in MIA PaCa-2 cells; test: Phospho-ERK1/2 MSD assay in MIA PaCa-2 cells; assay type: cell-based; conditions: read-out: p-ERK IC50 (2 h; MIA PaCa-2), 2 h compound treatment
In short: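 IC50 comes from a 4-parameter logistic fit of MSD phospho-ERK1/2 signal in lysates. Before lysis, MIA PaCa-2 or A549 cells were exposed to titrated compound for 2 or 4 h at 37 °C, followed by a 10 min 10 ng/mL EGF stimulus.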

GDP-bound KRAS protein (aa 1-169), containing both G12C and C118A amino acid substitutions, sequence (P01116 1-169 isoform P01116-2 G12C/C118A): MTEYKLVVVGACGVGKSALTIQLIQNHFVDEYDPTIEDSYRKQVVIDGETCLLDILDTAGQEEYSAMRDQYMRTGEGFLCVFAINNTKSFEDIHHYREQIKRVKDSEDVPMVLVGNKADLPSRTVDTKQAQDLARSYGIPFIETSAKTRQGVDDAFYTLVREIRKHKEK

SMILES	Coupled exchange IC50 (5 min) [1]	IC50 [2]	IC50 ([2]; Homo sapiens, MIA PaCa-2, 2 h)
C=CC(=O)N1CCN(c2nc(=O)n(-c3c(C)cccc3CC)c3nc(-c4ccccc4F)c(Cl)cc23)[C@@H](C)C1 (single isomer, unassigned) [Example 55-9-1]	0.804 | nda μM	1350 nM	–
C=CC(=O)N1CCN(c2nc(=O)n(-c3c(C)cccc3CC)c3nc(-c4ccccc4F)c(Cl)cc23)[C@@H](C)C1 (single isomer, unassigned) [Example 55-9-2]	0.158 | nda μM	298 nM	–
C=CC(=O)N1CCN(c2nc(=O)n(-c3c(C)ccnc3CC)c3nc(-c4c(O)cccc4F)c(Cl)cc23)[C@@H](C)C1 (single isomer, unassigned) [Example 55-10-1]	0.065 | nda μM	82 nM	–
C=CC(=O)N1CCN(c2nc(=O)n(-c3c(C)ccnc3CC)c3nc(-c4c(O)cccc4F)c(Cl)cc23)[C@@H](C)C1 (single isomer, unassigned) [Example 55-10-2]	0.266 | nda μM	344 nM	–
C=CC(=O)N1CCN(c2nc(=O)n(-c3c(C)cccc3C3CC3)c3nc(-c4c(O)cccc4F)c(Cl)cc23)[C@@H](C)C1 (single isomer, unassigned) [Example 55-15-1]	0.169 | nda μM	206 nM	–
C=CC(=O)N1CCN(c2nc(=O)n(-c3c(C)cccc3C3CC3)c3nc(-c4c(O)cccc4F)c(Cl)cc23)[C@@H](C)C1 (single isomer, unassigned) [Example 55-15-2]	0.061 | nda μM	76 nM	–
C=CC(=O)N1CCN(c2nc(=O)n(-c3c(O)cccc3C(C)C)c3nc(-c4ccccc4F)c(Cl)cc23)[C@@H](C)C1 (single isomer, unassigned) [Example 55-26-2]	0.031 | nda μM	–	124 nM
C=CC(=O)N1CCN(c2nc(=O)n(-c3c(C)cnn3C(C)(C)C)c3nc(-c4ccccc4F)c(Cl)cc23)[C@@H](C)C1 (single isomer, unassigned) [Example 55-38-2]	0.133 | nda μM	–	108 nM
C=CC(=O)N1CCN(c2nc(=O)n(-c3c(C)ncnc3C(C)C)c3nc(-c4cc(F)ccc4F)c(Cl)cc23)[C@@H](C)C1 (single isomer, unassigned) [Example 55-39-2]	0.121 | nda μM	–	111 nM
C=CC(=O)N1CCN(c2nc(=O)n(-c3c(C)ncnc3C(C)C)c3nc(-c4cc(C)ccc4F)c(Cl)cc23)[C@@H](C)C1 (single isomer, unassigned) [Example 55-40-2]	0.078 | nda μM	–	81 nM
C=CC(=O)N1CCN(c2nc(=O)n(-c3c(CO)cccc3C(C)C)c3nc(-c4ccccc4F)c(Cl)cc23)[C@@H](C)C1 (single isomer, unassigned) [Example 55-43-2]	0.022 | nda μM	–	32 nM
C=CC(=O)N1CCN(c2nc(=O)n(-c3ccccc3S(F)(F)(F)(F)F)c3nc(-c4c(O)cccc4F)c(Cl)cc23)[C@@H](C)C1 (single isomer, unassigned) [Example 56-1-2]	0.068 | nda μM	–	145 nM
C=CC(=O)N1CCN(c2nc(=O)n(-c3c(C)cccc3C3CC3)c3nc(-c4ccccc4F)c(Cl)cc23)[C@@H](C)C1 (single isomer, unassigned) [Example 56-5-1]	0.154 | nda μM	188 nM	–
C=CC(=O)N1CCN(c2nc(=O)n(-c3c(C)cccc3C3CC3)c3nc(-c4ccccc4F)c(Cl)cc23)[C@@H](C)C1 (single isomer, unassigned) [Example 56-5-2]	0.668 | nda μM	823 nM	–
C=CC(=O)N1CCN(c2nc(=O)n(-c3ccccc3C(C)C)c3nc(-c4cc(N)ccc4Cl)c(Cl)cc23)[C@@H](C)C1 (single isomer, unassigned) [Example 56-7-1]	0.079 | nda μM	29 nM	–
C=CC(=O)N1CCN(c2nc(=O)n(-c3ccccc3C(C)C)c3nc(-c4cc(N)ccc4Cl)c(Cl)cc23)[C@@H](C)C1 (single isomer, unassigned) [Example 56-7-2]	0.676 | nda μM	134 nM	–
C=CC(=O)N1CCN(c2nc(=O)n(-c3c(C)ccnc3CC)c3nc(-c4c(O)cccc4F)c(F)cc23)[C@@H](C)C1 (single isomer, unassigned) [Example 57-1-1]	0.524 | nda μM	–	630 nM
C=CC(=O)N1CCN(c2nc(=O)n(-c3ccccc3C(C)C)c3nc(-c4c(O)cccc4F)c(F)cc23)[C@@H](C)C1 (single isomer, unassigned) [Example 57-6-1]	3.163 | nda μM	2090 nM	–
C=CC(=O)N1CCN(c2nc(=O)n(-c3ccccc3C(C)C)c3nc(-c4ccccc4Cl)c(F)cc23)[C@@H](C)C1 (single isomer, unassigned) [Example 57-8-2]	0.514 | nda μM	–	166 nM
C=CC(=O)N1CCN(c2nc(=O)n(-c3c(C)cccc3CC)c3nc(-c4c(O)cccc4F)c(F)cc23)[C@@H](C)C1 (single isomer, unassigned) [Example 57-14-1]	0.288 | nda μM	–	348 nM
C=CC(=O)N1CCN(c2nc(=O)n(-c3c(Cl)cccc3C(C)C)c3nc(-c4c(O)cccc4F)c(F)cc23)[C@@H](C)C1 (single isomer, unassigned) [Example 57-15-1]	0.089 | nda μM	104 nM	–
C=CC(=O)N1CCN(c2nc(=O)n(-c3c(Cl)cccc3C(C)C)c3nc(-c4c(O)cccc4F)c(F)cc23)[C@@H](C)C1 (single isomer, unassigned) [Example 57-15-2]	0.841 | nda μM	984 nM	–
C=CC(=O)N1CCN(c2nc(=O)n(-c3c(C)cccc3C(C)(C)C)c3nc(-c4c(O)cccc4F)c(F)cc23)[C@@H](C)C1 (single isomer, unassigned) [Example 57-17-1]	0.316 | nda μM	–	300 nM
C=CC(=O)N1CCN(c2nc(=O)n(-c3ccccc3C(C)(C)C)c3nc(-c4c(O)cccc4F)c(F)cc23)[C@@H](C)C1 (single isomer, unassigned) [Example 58-1-2]	0.572 | nda μM	–	570 nM
C=CC(=O)N1CCN(c2nc(=O)n(-c3c(C(F)(F)F)ccnc3C(C)C)c3nc(-c4c(O)cccc4F)c(F)cc23)[C@@H](C)C1 (single isomer, unassigned) [Example 58-3-1]	0.097 | nda μM	144 nM	–
C=CC(=O)N1CCN(c2nc(=O)n(-c3c(C(F)(F)F)ccnc3C(C)C)c3nc(-c4c(O)cccc4F)c(F)cc23)[C@@H](C)C1 (single isomer, unassigned) [Example 58-3-2]	0.485 | nda μM	867 nM	–
C=CC(=O)N1CCN(c2nc(=O)n(-c3c(C)ccnc3C(C)C)c3nc(-c4ccccc4F)c(F)cc23)[C@@H](C)C1 (single isomer, unassigned) [Example 58-4-1]	0.212 | nda μM	–	114 nM
C=CC(=O)N1CCN(c2nc(=O)n(-c3c(C)ccnc3C(C)C)c3nc(-c4cc(O)ccc4F)c(F)cc23)[C@@H](C)C1 (single isomer, unassigned) [Example 58-5-2]	0.216 | nda μM	–	743 nM
